Data from BindingDB's records for doi:10.1021/cb600303y (Rutgers University, 2006).

How the values were obtained:
[1] = target: T1, Gag-Pol polyprotein [600-1028,C879S]/[600-1151,C879S] (Human immunodeficiency virus 1, UniProt P03366, C879S); test: Assay of RT RNH Activity; conditions: pH 8; 37 °C
T1 construct: 600-1028; 600-1151
Description: (§1) To assess the effect of inhibitors, RT RNH activity was measured using a FRET-based microplate fluorescence assay. Briefly, the RNA-DNA hybrid duplex was added to individual wells of a 96-well microplate containing test compound. Reactions were initiated by the addition of HIV-1 RT and allowed to proceed at 37 deg C for 30 min. Reactions were quenched by the addition of EDTA (0.5 M).

[2] = target: T1, Gag-Pol polyprotein [600-1028,C879S]/[600-1151,C879S]; test: Assay of RT RNA-Dependent DNA Polymerase (RDDP) Activity; conditions: pH 7.8; 37 °C
Description: HIV-1 RT RDDP activity was generally determined by a fixed time assay. Briefly, reaction mixtures contained p51/p66 RT, template-primer, and [3H]-TTP substrate. Aliquots of DMSO solutions containing the inhibitor were added such that the final DMSO concentration was < 2%. Reaction assays were incubated at 37 deg C for 10-20 min and then quenched with sodium pyrophosphate in 10% trichloroacetic acid (TCA). The samples were then filtered on Whatman 934-AH glass fiber filters and washed with 10% TCA and ethanol, and the radioactivity determined by liquid scintillation spectrometry.

[3] = target: T2, Gag-Pol polyprotein [600-1028,D666N,K669R,T814F,K818Q,C879S]/[600-1151,D666N,K669R,T814F,K818Q,C879S] (Human immunodeficiency virus 1, UniProt P03366, C879S/D666N/K669R/K818Q/T814F); test: Assay of RT RNH Activity
T2 construct: 600-1028; 600-1151
Description: as §1

[4] = target: T3, Gag-Pol polyprotein [600-1028,L699I,K702N,C879S]/[600-1151,L699I,K702N,C879S] (Human immunodeficiency virus 1, UniProt P03366, C879S/K702N/L699I); test: Assay of RT RNH Activity
T3 construct: 600-1028; 600-1151
Description: as §1

[5] = target: T4, Gag-Pol polyprotein [600-1028,V705A,Y780C,C879S]/[600-1151,V705A,Y780C,C879S] (Human immunodeficiency virus 1, UniProt P03366, C879S/V705A/Y780C); test: Assay of RT RNH Activity
T4 construct: 600-1028; 600-1151
Description: as §1

[6] = target: T5, Gag-Pol polyprotein [600-1028,Y780C]/[600-1151,Y780C] (Human immunodeficiency virus 1, UniProt P03366, Y780C); test: Assay of RT RNH Activity
T5 construct: 600-1028; 600-1151
Description: as §1

[7] = target: T6, Gag-Pol polyprotein [600-1028,Y787L]/[600-1151,Y787L] (Human immunodeficiency virus 1, UniProt P03366, Y787L); test: Assay of RT RNH Activity
T6 construct: 600-1028; 600-1151
Description: as §1

## COc1ccc2ccccc2c1/C=N/NC(=O)c1ccccc1 [dihydroxy benzoyl naphthyl hydrazone (DHBNH) analogue, 1]
[1]
  IC50: 15000 nM
[2]
  IC50: > 50000 nM

## COc1ccc2ccccc2c1/C=N/NC(=O)c1ccc(C)cc1 [dihydroxy benzoyl naphthyl hydrazone (DHBNH) analogue, 2]
[1]
  IC50: 15000 nM
[2]
  IC50: > 50000 nM

## COc1ccc(C(=O)N/N=C/c2c(OC)ccc3ccccc23)cc1 [dihydroxy benzoyl naphthyl hydrazone (DHBNH) analogue, 3]
[1]
  IC50: 12000 nM
[2]
  IC50: > 50000 nM

## COc1ccc2ccccc2c1/C=N/NC(=O)c1ccc(N(C)C)cc1 [dihydroxy benzoyl naphthyl hydrazone (DHBNH) analogue, 4]
[1]
  IC50: 2000 nM
[2]
  IC50: > 50000 nM

## COc1ccc2ccccc2c1/C=N/NC(=O)c1ccc(C(C)(C)C)cc1 [dihydroxy benzoyl naphthyl hydrazone (DHBNH) analogue, 5]
[1]
  IC50: 3000 nM
[2]
  IC50: 2000 nM

## COc1ccc2ccccc2c1/C=N/NC(=O)c1ccc(-c2ccccc2)cc1 [dihydroxy benzoyl naphthyl hydrazone (DHBNH) analogue, 6]
[1]
  IC50: 5000 nM
[2]
  IC50: 500 nM

## COc1ccc2ccccc2c1/C=N/NC(=O)c1ccc(Oc2ccccc2)cc1 [dihydroxy benzoyl naphthyl hydrazone (DHBNH) analogue, 7]
[1]
  IC50: 7000 nM
[2]
  IC50: 400 nM

## COc1ccc2ccccc2c1/C=N/NC(=O)C1CCC(c2ccc(Cl)cc2)CC1 (stereo not drawn) [dihydroxy benzoyl naphthyl hydrazone (DHBNH) analogue, 8]
[1]
  IC50: 7500 nM
[2]
  IC50: 1000 nM

## COc1ccc2ccccc2c1/C=N/NC(=O)c1ccc(O)c(O)c1 [dihydroxy benzoyl naphthyl hydrazone (DHBNH)]
[1]
  IC50: 500 nM
[3]
  IC50: 500 nM
[4]
  IC50: 700 nM
[5]
  IC50: 850 nM
[6]
  IC50: 650 nM
[7]
  IC50: 1200 nM
[2]
  IC50: > 25000 nM
